Experiments:
[1] = system: CXCL5; assay: CXCL5 chemokine secretion by UV-B irradiated NHEKs (ELISA); assay type: cell-based, human
Experimental: Normal human epidermal keratinocytes cultures were utilized to measure the release of proinflammatory cytokines and chemokines. Primary epidermal keratinocytes from neonatal donors were used from human origin and purchased from Thermo-Fisher (Cat No. A13401). […] Cells were cultured until the second passage and then acclimated for 48 hours more before UV-B irradiation. Dosing procedures and cell groups were identified using appropriate cell culture 24-well plates. The cell culture incubator was set at 5% v/v CO2 with temperature and humidity maintained at 36-38° C. and 40-70%, respectively. The test and control substances were administered to HKGS-depleted medium in triplicates. A fixed 5 μL/well from 100× stock dose volume was administered to 500 μL of media to each cell culture well on Day 3 and pre-incubated for 6 hours and then post-UVB incubated for 18 hours. […] CXCL5 levels were quantified by enzyme-linked immunosorbent assay (ELISA) after UV-B irradiation and incubation with test and control materials. CXCL5 levels were assessed from cell culture media supernatants using R&D Systems Human CXCL5/ENA-78 DuoSet ELISA kit (Cat. No. DY254-05) according to the manufacture's specifications. Absorbance was measured at 450 nm using plate reader and cytokine levels were calculated from a standard curve.

[2] = system: human epidermal keratinocytes; assay type: cell-based; settings: 24 h
Experimental: Normal human epidermal keratinocytes cultures were utilized to measure the release of proinflammatory cytokines and chemokines. Primary epidermal keratinocytes from neonatal donors were used from human origin and purchased from Thermo-Fisher (Cat No. A13401). […] Cells were cultured until the second passage and then acclimated for 48 hours more before UV-B irradiation. Dosing procedures and cell groups were identified using appropriate cell culture 24-well plates. The cell culture incubator was set at 5% v/v CO2 with temperature and humidity maintained at 36-38° C. and 40-70%, respectively. The test and control substances were administered to HKGS-depleted medium in triplicates. A fixed 5 μL/well from 100× stock dose volume was administered to 500 μL of media to each cell culture well on Day 3 and pre-incubated for 6 hours and then post-UVB incubated for 18 hours. The same procedure was utilized to determine non-toxic concentrations of 1,3-benzene diols after 24 hours of treatment. Cell Viability assays were conducted using MTS reduction assays (Promega) diluted 1:5 in DMEM+10% FBS media as specified by the manufacturer. Absorbance was measured at 490 nm using plate reader and cell viability was calculated as a percent of control. This assay was done along with all culture systems that were utilized to study cytokine release. […]

[3] = system: IL-8; assay: IL-8 release, nickel-induced allergy in human dermal microvascular endothelial cells (ELISA); assay type: cell-based; settings: co-treatment with NiSO4, HDMECs
Experimental: Dermal Microvascular endothelial cells of human origin were cultured in vitro using standard conditions (37° C., 95% v/v air, 5% v/v CO2). Human cells were selected as relevant to cell types within skin tissues for this development program. Cell culture methods are commonly used in non-clinical studies conducted on pharmaceutical products. […] Cells were cultured until the third and fourth passage and then acclimated for 24 hours before Nickel induction and dosing procedures. Cell treatment groups were identified using appropriate 96-well plates. The test and control articles were administered to medium containing 1 mM NiSO4 in triplicates. The negative control group received vehicle-only (0.1% v/v final) dose. A fixed 0.1 μL/well from 1000× stock dose volume was administered to 100 μL of media to each cell culture well on Day 2 and incubated for 6 hours at 37 degrees. These cell cultures were also utilized to determine the concentrations of test agent that were non-toxic after 24 hours of incubation.
Assay for Interleukin-8: Test material was applied in vitro for the ability to inhibit pro-inflammatory (IL-8) cytokine secretion by cultured HDMECs co-treated with Nickel (NiSO4). Clobetasol propionate was tested as positive control material for anti-inflammatory activity. The pro-inflammatory cytokine (IL-8) was quantified by enzyme-linked immunosorbent assay (ELISA) after inflammatory induction and incubation with test and control materials. Interleukin-8 levels in cell culture medium are markers of inflammation signaling by endothelial cells present in skin microvascular tissue in response to irritation. Interleukin-8 (IL-8) levels were assessed using BD Biosciences OptEIA™ Human IL-8 ELISA Set kit (Cat. No. 555244) and Reagent Set B (Cat. No. 550534) according to the manufacture's specifications. Absorbance was measured at 450 nm using plate reader and interleukin-8 levels were calculated from a standard curve.

[4] = system: human 3D skin-like EPIDERM; settings: 1 h
[5] = Antioxidant capacity (ABTS/metmyoglobin assay); assay type: biochemical; settings: OD 750 nm, 15 minutes after hydrogen peroxide
Experimental: Antioxidant capacity: The purpose of this study was to evaluate the overall antioxidant capacity of KLS-13022 for the ability to inhibit the oxidation of ABTS. (2,2′-Azino-di-[3-ethylbenzthiazoline sulphonate]) to ABTS.^+ by metmyoglobin. Ascorbic acid (Vitamin C) was used as positive antioxidant control in the assay. The testing involved the suppression of optical density (OD) at 750 nm to a degree, which is proportional to an effective oxidation inhibition. Neat solutions were prepared for materials formulated in HPLC-grade water (ascorbic acid) or 200-proof ethanol (KLS-13022). Serial dilutions were prepared for each material and mixed with metmyoglobin enzyme in assay buffer solution. All samples were compared to vehicle-only treated samples used as negative oxidation inhibition. Optical density changes at 750 nm were evaluated 15 minutes after addition of hydrogen peroxide to each sample. Average absorbance was calculated and plotted for each sample concentration. Effective antioxidant inhibition activity based on the change of absorbance of blank (vehicle-only) sample (no material added). […] The Antioxidant assay kit was obtained from Cayman Chemical Co. (Ann Arbor, Mich.). The assay consisted in the evaluation of the overall antioxidant capacity of test materials for the ability to inhibit the oxidation of ABTS. to ABTS.^+ by metmyoglobin. […]

Question: For `C=C(C)[C@@H]1CCC(C)=C[C@H]1c1c(O)cc(CC2CN(C(=O)OCC)C2)cc1O` [KLS-13022, ethyl 3-(3,5-dihydroxy-4-((1R,6R)-3-methyl-6-(prop-1-en-2-yl)cyclohex-2-enyl)benzyl)azetidine-1-carboxylate], which CXCL5 inhibition [1] is on record?
Answer: 100%

Question: And the IC50 ([1]; Homo sapiens, NHEK, light or radiation study, read-out: IC50 of CXCL5 inhibition)?
Answer: 50 nM

Question: And the non-toxic concentration range [2]?
Answer: ≤ 10 µM

Question: And the IC50 ([3]; Homo sapiens, Endothelial cell, read-out: IC50 of IL-8 inhibition)?
Answer: 300 nM

Question: And the “maximum IL-8 inhibition” value [3]?
Answer: 78%

Question: What about the tissue viability [4] of the same compound?
Answer: ≥ 50%

Question: What about the EC50 [5] of the same compound?
Answer: 25600 nM
